From patent US10410851B2, “Matrix-assisted laser desorption mass spectrometry of high molecular weight polyoxyethylene derivative” (NOF CORPORATION, priority 2015, dated 2019) come the findings set out here.

This data set in a line: 1-octanol/water partition coefficient (logPow) of the matrix by the high-performance liquid chromatography method, OECD Test Guideline 117. The class given is physicochemical. The conditions noted are these: HPLC method of OECD Test Guideline 117, matrix for MALDI mass spectrometry. The source says: The low polar matrix for MALDI mass spectrometry which can be used in the invention is a low polar matrix having a 1-octanol/water partition coefficient from 4.1 to 4.8 (more preferably from 4.3 to 4.8). The 1-octanol/water partition coefficient of the matrix is a numerical value measured by the high-performance liquid chromatography method described in OECD Test Guideline 117.

With `C/C(C=C(C#N)C#N)=C\c1ccc(C(C)(C)C)cc1` [Trans-2-[3-(4-tert-butylphenyl)-2-methyl-2-propenylidene]malononitrile], the “1-octanol/water partition coefficient (logPow)” value is reported as 4.6.
`O=C(O)c1cc(O)ccc1O` [2,5-dihydroxybenzoic acid] had a chromatographic logP (1-octanol/water) of 0.6.
As to `N#CC(=Cc1ccc(O)cc1)C(=O)O` [α-cyano-4-hydroxycinnamic acid], the chromatographic logP was determined as 0.9.

The chromatographic logP is lipophilicity estimated from chromatographic retention. Higher therefore signals higher lipophilicity.
